≈ marks a conversion by molar mass, not a printed value. Where two headings read alike, the source gives them in different places.
Assays:
HUMgal = HUMgal (Mycoplasmoides gallisepticum, UniProt A0A0F6CKR5); experiment: EMSA, inhibition of HUMgal DNA binding; parameters: species or system Mycoplasma gallisepticum
Description: (§3) One protein was from mycoplasma M. gallisepticum (HUMgal) and another was HUα-homodimer from E. coli (HUEc). […] To assess the effect of the three BDFs on DNA binding properties of the three HU proteins, increasing concentrations of inhibitors were mixed with preset DNA–protein complexes and EMSA was performed and quantified as described in the Methods.
(§4) Binding of HU proteins to DNA was analyzed by electrophoretic mobility shift assays (EMSA) performed as described previously[5]. Different amounts of the HU proteins (30 nM HUSpm and HUSpm_K35T, 60 nM HUMgal and HUEc, 100 nM HUSpm_K80A and HUSpm_K88A, and 200 mM HUSpm_R57A) were incubated with DNA (10 nM) in 10 μl of the binding buffer (20 mM Tris–HCl pH 8.0, 7% glycerol, and 150 mM of NaCl) for 10 min. Then, the samples were loaded to pre-runned (125 V, 30 min) 10% non-denaturing PAAG, buffered with 100 mM Tris–borate, and electrophoretically separated (125 V, 90 min). […] Gels were visualized using BIO RAD Faros FX Molecular Imager (532 nm EX, 605 nm BP), and quantification was performed using Quantity One software.
(§5) To evaluate the effects of inhibitors, 1 μl volumes of serial dilutions of tested compounds or DMSO were added to the preformed protein-DNA complexes. After five minute incubation, the assay was carried out as described above. Inhibition curves and IC50 values were obtained using GraphPad Prism 5 software.

HUSpm = HUSpm (Spiroplasma melliferum, UniProt A0ABX5UAT3); experiment: biochemical; assay type: binding
Description: In silico screening by molecular docking and filtering was performed to identify compounds interacting with the core region of the DNA-binding saddle-like domain of HU proteins (Fig. 1A) previously characterized in[35]. High-resolution spatial structure of HUSpm (PDB ID 5L8Z[9]) was chosen as a target for virtual screening of one million compounds from the Vitas-M laboratory library collection (https://vitasmlab.biz/). The screening (see "Methods" for a description) identified a set of five compounds (Supplementary Table S1), further evaluation of which was carried out by an electromobility shift assay (EMSA) performed as described in[5]. In the assay, formation of DNA–protein complexes retards migration of dye-labeled DNA-duplexes during non-denaturing PAGE that gives a shifted fluorescent band. The presence of an inhibitor prevents complex formation and corresponding band shifting.
All oligonucleotides were synthesized by Evrogen (Moscow, Russia).
For 48 bp DNA duplexes, 8% PAAG was used.

HUSpm_K88A = HUSpm_K88A (Spiroplasma melliferum, UniProt A0ABX5UAT3, K88A); conditions: read-out: IC50 against HUSpm mutant HUSpm_R88A (so in the source); EMSA with DS24a; mean ± SD from three runs; 100 nM protein
Description: (§6) Binding of HU proteins to DNA was analyzed by electrophoretic mobility shift assays (EMSA) performed as described previously[5]. Different amounts of the HU proteins (30 nM HUSpm and HUSpm_K35T, 60 nM HUMgal and HUEc, 100 nM HUSpm_K80A and HUSpm_K88A, and 200 mM HUSpm_R57A) were incubated with DNA (10 nM) in 10 μl of the binding buffer (20 mM Tris–HCl pH 8.0, 7% glycerol, and 150 mM of NaCl) for 10 min. Then, the samples were loaded to pre-runned (125 V, 30 min) 10% non-denaturing PAAG, buffered with 100 mM Tris–borate, and electrophoretically separated (125 V, 90 min). […] Gels were visualized using BIO RAD Faros FX Molecular Imager (532 nm EX, 605 nm BP), and quantification was performed using Quantity One software. The dissociation constants (Kd) were calculated as described earlier[16].
as §5

HUSpm_K35T = HUSpm_K35T (Spiroplasma melliferum, UniProt A0ABX5UAT3, K35T)
Description: Thus, previously obtained HUSpm mutants (F14A, F29A, F31A and K35T) were employed for inhibitor evaluation.
as §6, §5

HUSpm_K80A = HUSpm_K80A (Spiroplasma melliferum, UniProt A0ABX5UAT3, K80A); conditions: read-out: IC50 against HUSpm mutant HUSpm_K80A; EMSA with DS24a; mean ± SD from three runs; 100 nM protein
Description: as §6, §5

M. gallisepticum S6 = experiment: Broth micro-dilution test, MIC; assay type: cell-based, Mycoplasma gallisepticum; conditions: M. gallisepticum growth in culture, phenol red colour change, three determinations
Text: (§1) Since HU proteins are known to be essential for mycoplasma cell viability, [32], we assessed the effects of the inhibitors on M. gallisepticum and S. melliferum growth in culture. […] The growth of metabolizing organisms causes a change in the pH of the medium leading to a visible color change due to the presence of phenol red in the medium. When the growth of bacteria is inhibited, color change is not observed. The MIC is the lowest inhibitor concentration that prevents the color change at the time when the color change has developed in control (untreated) samples.
(§2) The S. melliferum KC3 strain was kindly provided by Prof. G. Wroblewsky of the University of Rennes, France. The M. gallisepticum S6 strain was provided by Prof. S. N. Borkhsenius, Institute of Cytology, St. Petersburg, Russian Academy of Science. The bacteria were cultivated as described in[62] without any specific aeration in covered flasks, for less than five passage. M. gallisepticum S6 was cultivated in a modified Edward’s liquid medium (tryptose (20 g/l), Tris (3 g/l), NaCl (5 g/l), KCl (1.3 g/l), yeast dialysate (5%), heat inactivated (56 °C–30 min) horse serum (6%), glucose (0.5%) and penicillin 300U/ml, pH 7.5) at 37 °C for 20 h after 1:100 dilution. […]

HUSpm_R57A = HUSpm_R57A (Spiroplasma melliferum, UniProt A0ABX5UAT3, R57A); conditions: read-out: IC50 against HUSpm mutant HUSpm_R57A; EMSA with DS24a; mean ± SD from three runs; 200 mM HUSpm_R57A as printed
Description: as §6, §5

[1] = Solubility (stated in words); assay type: physicochemical; conditions: water
[2] = system: HUSpm mutants (F14A, F29A, F31A); experiment: EMSA, inhibitor evaluation on HUSpm mutants F14A, F29A, F31A; assay type: binding, Spiroplasma melliferum; conditions: data not shown
S. melliferum KC3 = experiment: Broth micro-dilution test, MIC; assay type: cell-based, Spiroplasma melliferum; conditions: S. melliferum growth in culture, phenol red colour change, three determinations
Text: as §1, §2

[3] = target: T1, HUEc (HUα-homodimer from E. coli) (Escherichia coli, UniProt P0ACF0); experiment: biochemical; assay type: binding
T1 construct: made in house
Description: as §3, §4, §5

[4] = system: HUSpm (Spiroplasma melliferum), PDB:5L8Z_1; experiment: EMSA; conditions: EMSA: 20 mM Tris-HCl pH 8.0, 150 mM NaCl, 7% glycerol, 10 nM DNA, 10 min, temperature not stated; NMR: 50 mM sodium phosphate pH 7.2, 0.1 mM NaN3, 30 C
[5] = EMSA with DS24a, average ± SD from three runs, read-out: IC50, inhibition of HUMgal DNA-binding
[6] = EMSA with DS24a duplex, average±SD from three runs, read-out: IC50, half-maximal inhibitory concentration of HUSpm-DNA complex formation
[7] = EMSA with DS48 duplex, average±SD, n=3, read-out: IC50, half-maximal inhibitory concentration of HUSpm-DNA complex formation

HUMgal, sequence (A0A0F6CKR5 entry or part of it): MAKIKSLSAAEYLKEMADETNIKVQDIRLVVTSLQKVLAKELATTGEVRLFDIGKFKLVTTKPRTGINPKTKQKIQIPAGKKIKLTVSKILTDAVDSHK
T1 sequence (P0ACF0 whole entry): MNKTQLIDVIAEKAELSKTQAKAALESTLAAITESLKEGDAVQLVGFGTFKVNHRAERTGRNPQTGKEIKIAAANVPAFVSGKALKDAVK

For “4,5'-[4,4'-(9H-fluorene-9,9-diyl)bis(4,1-phenylene)]-bis(oxy)-bis(oxomethylene)-bis[2-(m-tolylcarbamoyl)-benzoic acid] [BDF5]”, the IC50 (HUMgal; [5]) was 5.9 ± 0.8 µM and the IC50 (HUSpm; [6]) was 6.3 ± 0.7 µM.

With O=C(Oc1ccc(C2(c3ccc(OC(=O)c4ccc(C(=O)O)c(C(=O)O)c4)cc3)c3ccccc3-c3ccccc32)cc1)c1ccc(C(=O)O)c(C(=O)O)c1 [BDF1] the “Inhibition of HUSpm-DNA binding, first round of EMSA” value (HUSpm; 100 μM compound, DS48) was “inhibits HUSpm-DNA binding”, the IC50 (HUSpm; [6]) was 6.2 ± 0.5 µM and the IC50 (HUSpm; [7]) was 6.5 ± 0.9 µM.

In the case of O=C(Oc1ccc(C2(c3ccc(OC(=O)c4ccc(C(=O)O)c(C(=O)O)c4)cc3)c3ccccc3-c3ccccc32)cc1)c1ccc(C(=O)O)c(C(=O)O)c1 [BDF4, 4,4'-[4,4'-(9H-fluorene-9,9-diyl)-bis(4,1-phenylene)]-bis(oxy)-bis(oxomethylene)diphthalic acid], the IC50 (HUSpm_K88A) is reported as 6.3 ± 1.2 µM, the “Decrease of the IC50 value as compared to wild type HUSpm” value (HUSpm_K35T; HUSpm_K35T vs wild type, DS24a) is reported as “about threefold decrease” and the IC50 (HUSpm_K35T; read-out: IC50 against HUSpm mutant HUSpm_K35T, EMSA with DS24a, mean ± SD from three runs, 30 nM protein) is reported as 1.8 ± 0.3 µM. The IC50 (HUSpm_K80A) was 5.9 ± 0.9 µM, the MIC (M. gallisepticum S6; Mycoplasmoides gallisepticum, S6, read-out: MIC, minimal inhibitory concentration) was 40 to 70 µM (≈ 29.4 to 51.4 µg/mL) and the IC50 (HUMgal; [5]) was 5 ± 0.6 µM. The IC50 (HUSpm; read-out: IC50, half-maximal inhibitory concentration of HUSpm-DNA complex formation, EMSA with DS24a duplex, average±SD from three runs) was 5.6 ± 0.8 µM, the IC50 (HUSpm_R57A) was 6.3 ± 1 µM and the Solubility [1] was “water solubility”. For the same compound, the “Effect of other mutations (F14A, F29A, F31A) on sensitivity to inhibitor” value [2] was “did not cause any significant effects” and the MIC (S. melliferum KC3; Spiroplasma melliferum, KC3, read-out: MIC, minimal inhibitory concentration) was 40 to 70 µM (≈ 29.4 to 51.4 µg/mL).

With O=C(O)c1cccc(C(=O)Oc2ccc(C3(c4ccc(OC(=O)c5cccc(C(=O)O)c5)cc4)c4ccccc4-c4ccccc43)cc2)c1 [BDF6, 3.3′-[4.4′-(9H-fluorene-9.9-diyl)-bis(4.1-phenylene)]-bis(oxy)-bis(oxomethylene)-dibenzoic acid] the “MIC, minimal inhibitory concentration” value (M. gallisepticum S6) was “worst MIC”, the IC50 (HUMgal; DS24a, representative result of one independent assay, read-out: IC50 given in figure, HUMgal DNA binding) was 8.2 µM and the IC50 (HUMgal; [5]) was 8.1 ± 1 µM. For the same compound, the IC50 (HUSpm; IC50, half-maximal inhibitory concentration of HUSpm-DNA complex formation, EMSA with DS24a duplex, average±SD from three runs) was 8.2 ± 1.1 µM, the IC50 (HUSpm; IC50 given in figure, HUSpm-DNA binding, DS24a, representative result of one independent assay) was 8.7 µM and the Solubility [1] was “limited solubility”. The IC50 ([3]; IC50, inhibition of HUEc DNA-binding, EMSA with DS24a, average ± SD from three runs) was 10 ± 1.3 µM, the IC50 ([3]; IC50 given in figure, HUEc DNA binding, DS24a, representative result of one independent assay) was 9.5 µM and the “MIC, minimal inhibitory concentration” value (S. melliferum KC3) was “worst MIC”.

For CSCCC(NS(=O)(=O)c1ccc2c(c1)C(=O)c1cc(S(=O)(=O)NC(CCSC)C(=O)O)ccc1-2)C(=O)O (stereo not shown) [compound 3], the IC50 (HUSpm; [7]) was greater than 100 µM.

“AGTCTAGAGTGCAAGTTGAGTCCTT / AAGGACTCAACTGCACTCTAGACT [DS24a (24a)]” showed a Kd [4] of 0.0026 µM.

“AGTCTAGAGTGCAGTTGAGTCCTTGCTACGACGGATCCCTTAGGTCAG (double strand) [DS48 (48)]” showed a Kd [4] of 0.0186 µM.

Work on “AGTCTAGAGTGCAGTTGAGTCCTTGCTACGACGGATCCCTTAGGTCAG / AAGGACTCAACTGCACTCTAGACT / CTGACCTAAGGGATCCGTCGTAG [Nick (N)]” yielded a Kd [4] of 0.0052 µM.

Compound “AGTCTAGAGTGCAGTTGAGTCCTTGCTACGACGGATCCCTTAGGTCAG / CTGACCTAAGGGATCCGTCGTAGCAAGAAAAAAAGACTCAACTGCACTCTAGACT [A7 bulge (A7)]” has a Kd [4] of 0.002 µM.

“AGTCTAGAGTGCAGTTGAGTCCTTGCTACGACGGATCCCTTAGGTCAG / CTGACCTAAGGGATCCGTCGTAGCAAGAGACTCAACTGCACTCTAGACT [A1 bulge (A1)]” showed a Kd [4] of 0.0025 µM.
